Data taken from patent US8653000B2, “Imine substituted 2,4-diaryl-pyrroline derivatives as pesticides” (BASF SE, priority 2010, dated 2014).

Assays:
Type in all cases: in vivo
[1] = test system: Silverleaf Whitefly (Bemisia Argentifolii); test: Silverleaf whitefly spray test on cotton plants; conditions: at 300 ppm; cotton plants sprayed; 3 days after treatment
Excerpt: B.8 Silverleaf Whitefly (Bemisia Argentifolii)
(§1) The active compounds were formulated in cyclohexanone as a 10,000 ppm solution supplied in tubes. The tubes were inserted into an automated electrostatic sprayer equipped with an atomizing nozzle and they served as stock solutions for which lower dilutions were made in 50% acetone:50% water (v/v). A nonionic surfactant (Kinetic) was included in the solution at a volume of 0.01% (v/v).
Cotton plants at the cotyledon stage (one plant per pot) were sprayed by an automated electrostatic plant sprayer equipped with an atomizing spray nozzle. The plants were dried in the sprayer fume hood and then removed from the sprayer. Each pot was placed into a plastic cup and about 10 to 12 whitefly adults (approximately 3-5 days old) were introduced. The insects were collected using an aspirator and a nontoxic Tygon® tubing connected to a barrier pipette tip. The tip, containing the collected insects, was then gently inserted into the soil containing the treated plant, allowing insects to crawl out of the tip to reach the foliage for feeding. Cups were covered with a reusable screened lid. […] Mortality was assessed 3 days after treatment, compared to untreated control plants.

[2] = test system: Colorado Potato Beetle (Leptinotarsa Decemlineata); test: Colorado potato beetle test on sprayed eggplant foliage; conditions: at 10 ppm, 4 days after treatment
Description: B.13 Colorado Potato Beetle (Leptinotarsa Decemlineata)
as §1, with “(Kinetic®)” for “(Kinetic)”
Eggplants were grown 2 plants to a pot and were selected for treatment at the 1st true leaf stage. Test solutions were sprayed onto the foliage by an automated electrostatic plant sprayer equipped with an atomizing spray nozzle. The plants were dried in the sprayer fume hood and then removed from the sprayer. The treated foliage was then cut and removed from the pot and placed in a 5-inch Petri dish lined with moistened filter paper. Five beetle larvae were introduced into each Petri dish and the dish was covered by a Petri dish lid. Petri dishes were maintained in a growth room at 25° C. and 20-40% relative humidity for 4 days, avoiding direct exposure to fluorescent light (24 hour photoperiod) to prevent trapping of heat inside the dishes. Mortality and reduced feeding were assessed 4 days after treatment, compared to untreated control plants.

[3] = test system: Cowpea Aphid (Aphis Craccivora); test: Cowpea aphid spray test on potted cowpea plants; conditions: cowpea plants sprayed, population reduction assessed after 24, 72 and 120 hours, read-out: mortality in comparison with untreated controls
Description: B.2 Cowpea Aphid (Aphis Craccivora)
Potted cowpea plants colonized with approximately 100-150 aphids of various stages were sprayed after the pest population had been recorded. Population reduction was assessed after 24, 72, and 120 hours.

[4] = test system: Diamond Back Moth (Plutella Xylostella); test: Diamond back moth leaf-dip test on Chinese cabbage; conditions: foliar, mortality recorded 24, 72 and 120 hours after treatment, read-out: mortality in comparison with untreated controls
Description: B.3 Diamond Back Moth (Plutella Xylostella)
Leaves of Chinese cabbage were dipped in test solution and air-dried. Treated leaves were placed in petri dished lined with moist filter paper. Mortality was recorded 24, 72, and 120 hours after treatment.

[5] = test system: green peach aphid (Myzus persicae); test: Green peach aphid systemic test, artificial diet in 96-well plates; conditions: 72 h, 3 days, read-out: mortality in comparison with untreated controls
Excerpt: B.4 Green Peach Aphid (Myzus Persicae)
For evaluating control of green peach aphid (Myzus persicae) through systemic means the test unit consisted of 96-well-microtiter plates containing liquid artificial diet under an artificial membrane.
The compounds were formulated using a solution containing 75% v/v water and 25% v/v DMSO. Different concentrations of formulated compounds were pipetted into the aphid diet, using a custom built pipetter, at two replications.
After application, 5-8 adult aphids were placed on the artificial membrane inside the microtiter plate wells. The aphids were then allowed to suck on the treated aphid diet and incubated at about 23±1° C. and about 50±5% relative humidity for 3 days. Aphid mortality and fecundity was then visually assessed.

[6] = test system: Mediterranean fruitfly (Ceratitis capitata); test: Mediterranean fruitfly microtiter plate test on insect diet with eggs; conditions: 120 h, sprayed onto insect diet, egg and larval mortality after 5 days, read-out: mortality in comparison with untreated controls
Description: B.5 Mediterranean Fruitfly (Ceratitis Capitata)
For evaluating control of Mediterranean fruitfly (Ceratitis capitata) the test unit consisted of microtiter plates containing an insect diet and 50-80 C. capitata eggs.
(§2) The compounds were formulated using a solution containing 75% v/v water and 25% v/v DMSO. Different concentrations of formulated compounds were sprayed onto the insect diet at 5 μl, using a custom built micro atomizer, at two replications.
(§3) After application, microtiter plates were incubated at about 28±1° C. and about 80±5% relative humidity for 5 days. Egg and larval mortality was then visually assessed.

[7] = test system: Orchid Thrips (Dichromothrips corbetti); test: Orchid thrips floral-immersion test; conditions: 96 h, after 4 days, read-out: mortality in comparison with untreated controls
Description: B.6 Orchid Thrips (Dichromothrips corbetti)
Dichromothrips corbettiadults used for bioassay were obtained from a colony maintained continuously under laboratory conditions. For testing purposes, the test compound was diluted to a concentration of 500 ppm (wt compound: vol diluent) in a 1:1 mixture of acetone:water (vol:vol), plus 0.01% vol/vol Kinetic® surfactant.
Thrips potency of each compound was evaluated by using a floral-immersion technique. Plastic petri dishes were used as test arenas. All petals of individual, intact or chid flowers were dipped into treatment solution and allowed to dry. Treated flowers were placed into individual petri dishes along with 10-15 adult thrips. The petri dishes were then covered with lids. All test arenas were held under continuous light and a temperature of about 28° C. for duration of the assay. After 4 days, the numbers of live thrips were counted on each flower, and along inner walls of each petri dish. The level of thrips mortality was extrapolated from pre-treatment thrips numbers.

[8] = test system: Southern Armyworm (Spodoptera Eridania); test: Southern armyworm spray test on lima bean plants; conditions: foliar, 96 h, lima bean foliage sprayed, 4 days after treatment, read-out: mortality in comparison with untreated controls
Description: B.9 Southern Armyworm (Spodoptera Eridania)
as §1, with “(Kinetic®)” for “(Kinetic)”
Lima bean plants (variety Sieva) were grown 2 plants to a pot and selected for treatment at the 1st true leaf stage. Test solutions were sprayed onto the foliage by an automated electrostatic plant sprayer equipped with an atomizing spray nozzle. The plants were dried in the sprayer fume hood and then removed from the sprayer. Each pot was placed into perforated plastic bags with a zip closure. About 10 to 11 armyworm larvae were placed into the bag and the bags zipped closed. Test plants were maintained in a growth room at about 25° C. and about 20-40% relative humidity for 4 days, avoiding direct exposure to fluorescent light (24 hour photoperiod) to prevent trapping of heat inside the bags. Mortality and reduced feeding was assessed 4 days after treatment, compared to untreated control plants.

[9] = test system: vetch aphid (Megoura viciae); test: Vetch aphid test on broad bean leaf disks in 24-well plates; conditions: foliar, 120 h, sprayed onto leaf disks, 5 days, read-out: mortality in comparison with untreated controls
Description: B.10 Vetch Aphid (Megoura Viciae)
For evaluating control of vetch aphid (Megoura viciae) through contact or systemic means the test unit consisted of 24-well-microtiter plates containing broad bean leaf disks.
The compounds were formulated using a solution containing 75% v/v water and 25% v/v DMSO. Different concentrations of formulated compounds were sprayed onto the leaf disks at 2.5 μl, using a custom built micro atomizer, at two replications.
After application, the leaf disks were air-dried and 5-8 adult aphids placed on the leaf disks inside the microtiter plate wells. The aphids were then allowed to suck on the treated leaf disks and incubated at about 23±1° C. and about 50±5% relative humidity for 5 days. Aphid mortality and fecundity was then visually assessed.

[10] = test system: tobacco budworm (Heliothis virescens); test: Tobacco budworm microtiter plate test on insect diet with eggs; conditions: 120 h, sprayed onto insect diet, egg and larval mortality after 5 days, read-out: mortality in comparison with untreated controls
Description: B.11 Tobacco Budworm (Heliothis Virescens) I
as §2, with “For evaluating control of tobacco budworm (Heliothis virescens) the test unit consisted of 96-well-microtiter plates containing an insect diet and 15-25 H. virescens eggs. The” for “The”, “at 10” for “at 5”
as §3

[11] = test system: boll weevil (Anthonomus grandis); test: Boll weevil microtiter plate test on insect diet with eggs; conditions: 120 h, sprayed onto insect diet, egg and larval mortality after 5 days, read-out: mortality in comparison with untreated controls
Description: B.12 Boll Weevil (Anthonomus Grandis)
For evaluating control of boll weevil (Anthonomus grandis) the test unit consisted of 24-well-microtiter plates containing an insect diet and 20-30 A. grandis eggs.
The compounds were formulated using a solution containing 75% v/v water and 25% v/v DMSO. Different concentrations of formulated compounds were sprayed onto the insect diet at 20 μl, using a custom built micro atomizer, at two replications. After application, microtiter plates were incubated at about 23±1° C. and about 50±5% relative humidity for 5 days. Egg and larval mortality was then visually assessed.

[12] = test system: Red Spider Mite (Tetranychus Kanzawai); test: Red spider mite spray test on potted cowpea beans; conditions: cowpea beans sprayed, after 72 h, read-out: mortality in comparison with untreated controls
Description: B.14 Red Spider Mite (Tetranychus Kanzawai)
The active compound was dissolved at the desired concentration in a mixture of 1:1 (v/v) distilled water:acetone. A surfactant (Alkamuls® EL 620) was added at the rate of 0.1% (v/v).
Potted cowpea beans of 7-10 days of age were cleaned with tap water and sprayed with 5 ml of the test solution using air driven hand atomizer. The treated plants were allowed to air dry and afterwards inculated with 20 or more mites by clipping a cassaya leaf section with known mite population. Treated plants were placed inside a holding room at about 25-27° C. and about 50-60% relative humidity.
Mortality was determined by counting the live mites 72 HAT. Percent mortality was assessed after 72 h.

For `O=C(NCC(F)(F)F)NN=Cc1ccc(C2=NCC(c3cc(Cl)cc(Cl)c3)(C(F)(F)F)C2)cc1Cl` (racemic) [Compound 2-3], the “mortality in comparison with untreated controls” value [1] was “at least 75%”.
In the case of `CNC(=O)NN=Cc1ccc(C2=NCC(c3cc(Cl)cc(Cl)c3)(C(F)(F)F)C2)cc1Cl` (racemic) [Compound 2-4], the “mortality in comparison with untreated controls” value [2] was “at least 75%”.
For `Cc1cc(C2=NCC(c3cc(Cl)cc(Cl)c3)(C(F)(F)F)C2)ccc1/C=N/NC(=O)NCC(F)(F)F` (stereo not drawn) [Compound 1-3, 1-[(E)-[4-[3-(3,5-dichlorophenyl)-3-(trifluoromethyl)-2,4-dihydropyrrol-5-yl]-2-methyl-phenyl]methyleneamino]-3-(2,2,2-trifluoroethyl)urea], the mortality at 500 ppm [3] was at least 75%, the mortality at 500 ppm [4] was at least 75% and the mortality at 2500 ppm [5] was at least 75%. The mortality at 2500 ppm [6] was at least 75%, the mortality at 500 ppm [7] was at least 75% and the mortality at 1 ppm [8] was at least 75%. For the same molecule, the mortality at 2500 ppm [9] was at least 75%, the mortality at 2500 ppm [10] was at least 75% and the mortality at 2500 ppm [11] was at least 75%. For the same molecule, the mortality at 500 ppm [12] was at least 75%.
